Test results from US12116358B2, “Substituted indoles and methods of use thereof” (EPIZYME, INC., priority 2018, dated 2024).

tested on: KMS-34 cells; test: 14 day KMS-34 long term proliferation (LTP) assay; conditions: Homo sapiens, KMS-34, 336 h, read-out: LTP Day 14 Abs IC50
Procedure: 14 Day KMS-34 Long Term Proliferation (LTP) Assay
Incubate plates for 96 hrs.
The final concentration is 1 μm.
To calculate growth for days 4, 7, 11, and 14:
1. Calculate the split factor for day 4 to 7, day 7 to 11, and day 11-14 The split factor is the viable cells/mL on Day X (either 4, 7, or 11) divided by the density the cells are being split back to.
2. For growth of cells from day 4 to 7, multiply the day 7 viable cells/mL density by the split factor from day 4.
4. For growth of cells from Day 11 to 14, multiply the Day 14 viable cells/mL density by the days 4, 7, and 11 split factors.
5. Plot growth on semi-log chart (viable cells/mL on Y axis, in log, and days on X axis).
From 5 mM to 0.25 μm. […] Mix well by pipetting up and down.

Compound	IC50 [nM]
Cc1ccc(F)c2cc(C(=O)Nc3cccc(N4CCOC4=O)c3)[nH]c12 [compound 66]	420
Cc1ccc(F)c2cc(C(=O)Nc3cccc(-n4ccnc4)c3)[nH]c12 [compound 221]	930
Cc1ccc(F)c2cc(C(=O)Nc3cccc(-c4cnn(C)c4)c3)[nH]c12 [compound 151]	580
CC(=O)N1CCN(c2cccc(NC(=O)c3cc4cccc(C5CC5)c4[nH]3)c2)CC1 [compound 509]	2600

same assay, conditions: read-out: LTP Day 14 Abs IC50; KMS-34 cells, day 14

Compound	IC50 [nM]
Cc1ccc(F)c2cc(C(=O)Nc3cccc(N4CCC(N5CCOCC5)CC4)c3)[nH]c12 [compound 76]	360
Cc1ccc(F)c2cc(C(=O)Nc3cccc(N4CCOC(CO)C4)c3)[nH]c12 (stereo not drawn) [compound 115]	260
Cc1ccc(F)c2cc(C(=O)Nc3cccc(-c4cncnc4)c3)[nH]c12 [compound 64]	380
CC(=O)N1CCN(C2CCCC(NC(=O)c3cc4c(F)ccc(C)c4[nH]3)C2)CC1 (stereo not drawn) [compound 359]	7800
Cc1ccc(F)c2cc(C(=O)Nc3cc(Cl)cc(N4CCC(N5CCOCC5)C4)c3)[nH]c12 (stereo not drawn) [compound 22]	110
Cc1ccc(F)c2cc(C(=O)Nc3cccc4cnccc34)[nH]c12 [compound 134]	800
CC(=O)N1CCN(c2cc(Cl)cc(NC(=O)c3cc4c(F)ccc(C)c4[nH]3)c2)CC1 [compound 31]	130
CC(=O)N1CCN(C2CCCC(NC(=O)c3cc4c(F)ccc(C)c4[nH]3)C2)CC1 (stereo not drawn) [compound 373]	10000
CC(=O)N1CCN(c2cc(F)cc(NC(=O)c3cc4c(F)ccc(C)c4[nH]3)c2)CC1 [compound 7]	60
CC(=O)N1CCN(C2CCCC(NC(=O)c3cc4c(F)ccc(C)c4[nH]3)C2)CC1 (stereo not drawn) [compound 372]	10000
CC(=O)N1CCN(c2cccc(NC(=O)c3cc4c(F)ccc(C)c4[nH]3)c2)CC1 [compound 34]	250
Cc1ccc(F)c2cc(C(=O)Nc3cc(F)cc(N4CCC(N5CCOCC5)C4)c3)[nH]c12 (stereo not drawn) [compound 11]	90
CC(=O)N1CCN(c2cccc(NC(=O)c3cc4c(F)ccc(C)c4[nH]3)c2)CC1C (stereo not drawn) [compound 32]	110
Cc1nnc(-c2cccc(NC(=O)c3cc4c(F)ccc(C)c4[nH]3)c2)s1 [compound 65]	280

tested on: H3K36me3 in A549 cells; test: In-Cell Western (ICW) assay of SETD2 inhibitors (A549 assay); format: cell-based, human; conditions: A549 cells; read-out: SETD2 A549
Procedure, shortened: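 A549 cells seeded at 4,000/well onto compound and incubated 3 days at 37° C. Methanol-fixed cells stained overnight at 4° C with anti-H3K36me3 (1:1000), then IRDye 800CW secondary with DRAQ5 DNA counterstain. Plates read by Licor imaging at 700 and 800 channels.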

Compound	IC50 [nM]
Cc1ccc(F)c2cc(C(=O)Nc3cccc(N4CCC(N5CCOCC5)CC4)c3)[nH]c12 [compound 76]	200
Cc1ccc(F)c2cc(C(=O)Nc3cccc(N4CCOC(CO)C4)c3)[nH]c12 (stereo not drawn) [compound 115]	200
Cc1ccc(F)c2cc(C(=O)Nc3cccc(-c4cncnc4)c3)[nH]c12 [compound 64]	100
CC(=O)N1CCN(C2CCCC(NC(=O)c3cc4c(F)ccc(C)c4[nH]3)C2)CC1 (stereo not drawn) [compound 359]	> 2000
Cc1ccc(F)c2cc(C(=O)Nc3cc(Cl)cc(N4CCC(N5CCOCC5)C4)c3)[nH]c12 (stereo not drawn) [compound 22]	60
Cc1ccc(F)c2cc(C(=O)Nc3cccc4cnccc34)[nH]c12 [compound 134]	300
CC(=O)N1CCN(c2cc(Cl)cc(NC(=O)c3cc4c(F)ccc(C)c4[nH]3)c2)CC1 [compound 31]	80
CC(=O)N1CCN(C2CCCC(NC(=O)c3cc4c(F)ccc(C)c4[nH]3)C2)CC1 (stereo not drawn) [compound 373]	> 2000
CC(=O)N1CCN(c2cc(F)cc(NC(=O)c3cc4c(F)ccc(C)c4[nH]3)c2)CC1 [compound 7]	40
CC(=O)N1CCN(C2CCCC(NC(=O)c3cc4c(F)ccc(C)c4[nH]3)C2)CC1 (stereo not drawn) [compound 372]	> 2000
CC(=O)N1CCN(c2cccc(NC(=O)c3cc4c(F)ccc(C)c4[nH]3)c2)CC1 [compound 34]	80
Cc1ccc(F)c2cc(C(=O)Nc3cc(F)cc(N4CCC(N5CCOCC5)C4)c3)[nH]c12 (stereo not drawn) [compound 11]	40
CC(=O)N1CCN(c2cccc(NC(=O)c3cc4c(F)ccc(C)c4[nH]3)c2)CC1C (stereo not drawn) [compound 32]	80
Cc1nnc(-c2cccc(NC(=O)c3cc4c(F)ccc(C)c4[nH]3)c2)s1 [compound 65]	100
Cc1nnc(C2CCCC(NC(=O)c3cc4c(F)ccc(C)c4[nH]3)C2)o1 (stereo not drawn) [compound 975]	400
Cc1cccnc1C(NC(=O)c1cc2cncc(C)c2[nH]1)C1CC1 (stereo not drawn) [compound 608]	> 25000
CC(=O)NC1CCN([C@H]2CCC[C@@H](NC(=O)c3cc4c(F)ccc(C)c4[nH]3)C2)C1 (stereo partly drawn) [compound 833]	400
Cc1ccc(F)c2cc(C(=O)N[C@@H]3CCC[C@H](N4CCN(CC(F)(F)F)CC4)C3)[nH]c12 [compound 826]	500
Cc1ccc(F)c2cc(C(=O)Nc3cc(F)cc(N4CCOC(CO)C4)c3)[nH]c12 (stereo not drawn) [compound 48]	100
CC(=O)N1CCC2(CCN(c3cc(F)cc(NC(=O)c4cc5c(F)ccc(C)c5[nH]4)c3)CC2)C1 [compound 30]	70
Cc1ccc(F)c2cc(C(=O)NC3CCCC(N4CCN5C(=O)NCC5C4)C3)[nH]c12 (stereo not drawn) [compound 1083]	50
CCC(=O)N1CCN(c2cccc(NC(=O)c3cc4c(F)ccc(C)c4[nH]3)c2)CC1 [compound 36]	90
Cc1cccc2cc(C(=O)NC3CCN(C(=O)CCCN)CC3C)[nH]c12 (stereo not drawn) [compound 614]	> 25000

same assay, conditions: Homo sapiens; A549 cells; read-out: SETD2 A549

Compound	IC50 [nM]
Cc1ccc(F)c2cc(C(=O)Nc3cccc(N4CCOC4=O)c3)[nH]c12 [compound 66]	200
Cc1ccc(F)c2cc(C(=O)Nc3cccc(-n4ccnc4)c3)[nH]c12 [compound 221]	500
Cc1ccc(F)c2cc(C(=O)Nc3cccc(-c4cnn(C)c4)c3)[nH]c12 [compound 151]	300
CC(=O)N1CCN(c2cccc(NC(=O)c3cc4cccc(C5CC5)c4[nH]3)c2)CC1 [compound 509]	15400
Cc1ccc(F)c2cc(C(=O)N[C@@H]3CCC[C@@H](N4CCN(C(=O)C5COC5)CC4)C3)[nH]c12 [compound 919]	> 2000
Cc1ccc(F)c2cc(C(=O)N[C@@H]3CCC[C@H](c4noc(CN(C)C)n4)C3)[nH]c12 [compound 1014]	700
CC[C@@H]1CN([C@@H]2CCC[C@@H](NC(=O)c3cc4c(F)ccc(C)c4[nH]3)C2)CCN1C(C)=O [compound 1095]	> 2000
Cc1ccc(F)c2cc(C(=O)N[C@@H]3CCC[C@H](c4cccnc4)C3)[nH]c12 [compound 903]	300
CC(=O)N1CCN([C@H]2CCC[C@@H](NC(=O)c3cc4c(F)ccc(C)c4[nH]3)C2)CC12CC2 [compound 1025]	30
Cc1ccc(F)c2cc(C(=O)Nc3cccc(N4CCN(C(C)C)CC4C)c3)[nH]c12 (stereo not drawn) [compound 280]	900
Cc1ccc(F)c2cc(C(=O)Nc3cnn(C4CCN(C)CC4)c3)[nH]c12 [compound 569]	> 25000

biological target: T1, SETD2(1434-1711) (Homo sapiens, UniProt Q9BYW2); test: SETD2 (1434-1711) assay; format: biochemical; conditions: read-out: SETD2 (1434-1711)
T1 construct: SETD2 (1434-1711) Assay; catalogue N/A
T1 sequence (Q9BYW2 1434-1711): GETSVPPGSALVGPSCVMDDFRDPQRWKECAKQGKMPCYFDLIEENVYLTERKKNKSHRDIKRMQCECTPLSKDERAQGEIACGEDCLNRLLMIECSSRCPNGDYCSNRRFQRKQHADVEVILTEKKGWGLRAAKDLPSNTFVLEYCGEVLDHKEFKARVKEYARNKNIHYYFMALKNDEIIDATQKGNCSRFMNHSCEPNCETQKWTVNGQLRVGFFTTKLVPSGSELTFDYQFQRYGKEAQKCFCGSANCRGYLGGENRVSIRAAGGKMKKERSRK

Compound	IC50 [nM]
Cc1ccc(F)c2cc(C(=O)Nc3cccc(N4CCC(N5CCOCC5)CC4)c3)[nH]c12 [compound 76]	30
Cc1ccc(F)c2cc(C(=O)Nc3cccc(N4CCOC(CO)C4)c3)[nH]c12 (stereo not drawn) [compound 115]	50
Cc1ccc(F)c2cc(C(=O)Nc3cccc(-c4cncnc4)c3)[nH]c12 [compound 64]	60
Cc1ccc(F)c2cc(C(=O)Nc3cccc(N4CCOC4=O)c3)[nH]c12 [compound 66]	30
Cc1ccc(F)c2cc(C(=O)Nc3cc(Cl)cc(N4CCC(N5CCOCC5)C4)c3)[nH]c12 (stereo not drawn) [compound 22]	10
Cc1ccc(F)c2cc(C(=O)Nc3cccc4cnccc34)[nH]c12 [compound 134]	60
Cc1ccc(F)c2cc(C(=O)Nc3cccc(-n4ccnc4)c3)[nH]c12 [compound 221]	100
CC(=O)N1CCN(c2cc(Cl)cc(NC(=O)c3cc4c(F)ccc(C)c4[nH]3)c2)CC1 [compound 31]	10
Cc1ccc(F)c2cc(C(=O)Nc3cccc(-c4cnn(C)c4)c3)[nH]c12 [compound 151]	80
CC(=O)N1CCN(c2cccc(NC(=O)c3cc4cccc(C5CC5)c4[nH]3)c2)CC1 [compound 509]	22400
Cc1ccc(F)c2cc(C(=O)Nc3cc(F)cc(N4CCC(N5CCOCC5)C4)c3)[nH]c12 (stereo not drawn) [compound 11]	6
CC(=O)N1CCN(c2cccc(NC(=O)c3cc4c(F)ccc(C)c4[nH]3)c2)CC1C (stereo not drawn) [compound 32]	20
Cc1nnc(-c2cccc(NC(=O)c3cc4c(F)ccc(C)c4[nH]3)c2)s1 [compound 65]	20
Cc1nnc(C2CCCC(NC(=O)c3cc4c(F)ccc(C)c4[nH]3)C2)o1 (stereo not drawn) [compound 975]	100
Cc1cccnc1C(NC(=O)c1cc2cncc(C)c2[nH]1)C1CC1 (stereo not drawn) [compound 608]	> 50000
CC(=O)NC1CCN([C@H]2CCC[C@@H](NC(=O)c3cc4c(F)ccc(C)c4[nH]3)C2)C1 (stereo partly drawn) [compound 833]	40
Cc1ccc(F)c2cc(C(=O)N[C@@H]3CCC[C@@H](N4CCN(C(=O)C5COC5)CC4)C3)[nH]c12 [compound 919]	900
Cc1ccc(F)c2cc(C(=O)N[C@@H]3CCC[C@H](N4CCN(CC(F)(F)F)CC4)C3)[nH]c12 [compound 826]	100
Cc1ccc(F)c2cc(C(=O)N[C@@H]3CCC[C@H](c4noc(CN(C)C)n4)C3)[nH]c12 [compound 1014]	200
Cc1ccc(F)c2cc(C(=O)Nc3cc(F)cc(N4CCOC(CO)C4)c3)[nH]c12 (stereo not drawn) [compound 48]	20
CC(=O)N1CCC2(CCN(c3cc(F)cc(NC(=O)c4cc5c(F)ccc(C)c5[nH]4)c3)CC2)C1 [compound 30]	8
CC[C@@H]1CN([C@@H]2CCC[C@@H](NC(=O)c3cc4c(F)ccc(C)c4[nH]3)C2)CCN1C(C)=O [compound 1095]	600
Cc1ccc(F)c2cc(C(=O)N[C@@H]3CCC[C@H](c4cccnc4)C3)[nH]c12 [compound 903]	40
CC(=O)N1CCN([C@H]2CCC[C@@H](NC(=O)c3cc4c(F)ccc(C)c4[nH]3)C2)CC12CC2 [compound 1025]	20
Cc1ccc(F)c2cc(C(=O)NC3CCCC(N4CCN5C(=O)NCC5C4)C3)[nH]c12 (stereo not drawn) [compound 1083]	20
CCC(=O)N1CCN(c2cccc(NC(=O)c3cc4c(F)ccc(C)c4[nH]3)c2)CC1 [compound 36]	30
Cc1ccc(F)c2cc(C(=O)Nc3cccc(N4CCN(C(C)C)CC4C)c3)[nH]c12 (stereo not drawn) [compound 280]	100
Cc1ccc(F)c2cc(C(=O)Nc3cnn(C4CCN(C)CC4)c3)[nH]c12 [compound 569]	14000
Cc1cccc2cc(C(=O)NC3CCN(C(=O)CCCN)CC3C)[nH]c12 (stereo not drawn) [compound 614]	62700
